{"source": "patent US20110166038A1", "about": "“SCREENING METHODS FOR HEAT-SHOCK RESPONSE MODULATORS” (SCREENING METHODS FOR HEAT-SHOCK RESPONSE MODULATIORS, priority 2008, published 2011)", "type_in_all_cases": "cell-based", "key": {"[1]": {"system": "HSP70", "test": "MaCRA HCS HSP70 granule assay, heat shock 41° C.", "settings": "Homo sapiens, HeLa, read-out: EC50 of HSP granule area", "protocol": "(§1) This experiment was directed to developing of a HSF1/HSP70 high-content screening (HCS) assay for screening HSF1 activators. HeLa cells were pretreated with a compound (celastrol) one hour before heat shock at 41° C. for two hours. The dilution in Dulbecco's Modified Eagle's Medium (DMEM) was 200-fold resulting in a final concentration of 30 μM for screening. A custom made aluminum plate was designed for better heat transduction and to achieve a constant temperature with minimal variability for the 96-well plate. The aluminum plate was placed inside a 41° C. incubator for one day prior to the experiment.\nImmunocytochemical staining for HSF1 and HSP70 in HeLa cells was performed as in Zhang et al., Biomol Screen., 13(6):538-543, 2008. Image acquisition was performed using an INcell 1000 (GE Healthcare, Piscataway, N.J.) integrated with a Twister II (Caliper Life Sciences, Hopkinton, Mass.) for automated plate delivery. […]\nA Multi Target Analysis Module (MTA) module from Workstation software (GE Healthcare) provides a high-speed measurement of nuclear granules including granule count, granule area, granule intensity and nuclear intensity CV (CV of pixel intensity in the nucleus). FIGS. 2A and 2B provide a quantification of HSF1 variables via granule count and nuclear intensity CV. FIGS. 2C and 2D adopted granule count and granule area for the quantification of HSP70 granules. […]"}, "[2]": {"system": "HSF1", "test": "MaCRA HCS HSF1 granule assay, heat shock 41° C.", "protocol": "as §1\nImmunocytochemical staining for HSF1 and HSP70 in HeLa cells was performed as in Zhang et al., Biomol Screen., 13(6):538-543, 2008. Image acquisition was performed using an INcell 1000 (GE Healthcare, Piscataway, N.J.) integrated with a Twister II (Caliper Life Sciences, Hopkinton, Mass.) for automated plate delivery. Image analysis was carried out using a Multi Target Analysis module from Workstation 3.6. Algorithms for HSF1/HSP70 granule count, granule area and nuclear intensity CV were established according to assay conditions and manufacture instructions. EC50 values and curve fitting were performed using a Prism 4.0 (GraphPad Software, San Diego, Calif.) with nonlinear regression analysis.\nA Multi Target Analysis Module (MTA) module from Workstation software (GE Healthcare) provides a high-speed measurement of nuclear granules including granule count, granule area, granule intensity and nuclear intensity CV (CV of pixel intensity in the nucleus). FIGS. 2A and 2B provide a quantification of HSF1 variables via granule count and nuclear intensity CV. FIGS. 2C and 2D adopted granule count and granule area for the quantification of HSP70 granules.\nBy comparison, DMSO-treated cells contain, on average, 2.46±0.22 granules. To achieve a relatively low background, HeLa cells that contained more than 5 HSF1 granules were designated as “HSF1 granule positive cells”. The thresholds for HSF1 nuclear intensity CV, HSP70 granule count and HSP70 granule area were also chosen with gating values equivalent to the average of DMSO treated samples plus 2 or more standard deviations (FIG. 2B-2D).\nExperiment 3: HeLa cells were seeded in Costar 96-well assay plates (Costar 3904) at a density of 8,000 cells/well approximately 16 to 24 hours before compound treatment. Subsequently, the cells were treated with DMSO. […] Heat shock was carried out at 41° C. for 2 hours with no recovery time. Immediately following heat shock, 50 μL of 16% para-formaldehyde was mixed with the culture medium (total volume at 150 μL) to a final concentration of 4%. The plates were incubated at room temperature for 30 minutes before washing with PBS. […]"}, "[3]": {"system": "SH-SY5Y cells", "test": "Rotenone model, MTS readout", "settings": "100 nM for 24 hours", "description": "This experiment tests the hits from the MaCRA HSF1 activator screening in a secondary rotenone assay for cytoprotective effects of test compounds on SHSY5Y cells. The rotenone model of Parkinson's disease is an in vitro system for study of protein aggregation induced cytotoxicity. […] See Greenamyre et al., Parkinsonism Relat. Disord., Suppl 2:S59-S64 (2003). Therefore, this in vitro system may be adopted to evaluate cytoprotective effects of the HSF1/HSP70 MaCRA screening hits as carried out essentially as described in Sherer et al., J. Neuroscience, 23(34):10756-10764, 2003. […] In summary, the small molecule HSF1/HSP70 amplifier identified from our HSF1/HSP70 screening can rescue cells from two different stress conditions with cytoprotective benefits, possibly through the mechanism of HSF1/HSP70 amplification."}, "[4]": {"system": "HSP70", "test": "HSP70 inhibitor assay, heat shock 43° C.", "settings": "HeLa, 1 μM triptolide or 10 μM CYT compound, 43° C. 1-4 hours, recovery 0-7 hours", "protocol": "(§2) Experiment 2: HeLa cells were treated with 1 μM of Triptolide and 10 μM of CYT975 (▪), CYT1563 (▴) and CYT1590 ([…]) 30 minutes before heat shock. The cells subsequently underwent heat shock at 43° C. for 1 hour with 0, 5 or 7 hours recovery time with total HSP70 nuclear and cell intensity as the threshold.\nas §2, with “Experiment 3:” for “Experiment 2:”, “for 2 hours” for “for 1 hour”, “0, 4” for “0, 5”, “or 6” for “or 7”\nas §2, with “4:” for “2:”, “3 hours” for “1 hour”, “0, 3 or” for “0,”, “5” for “5 or 7”, “threshold. […]” for “threshold.”\nExperiment 3: HSP70 expression induced by Triptolide (▪), CYT1563 (▴) and DMSO (0, control) was evaluated in a 96-well plate format (See Example 4) following heat shock at 43° C. for 2 hours with 4 hours recovery time. […]\nExperiment 4: HSP70 expression induced by Triptolide (▪), CYT1563 (▴) and DMSO (♦, control) was evaluated in a 96-well plate format (See Example 4) following heat shock at 43° C. for 4 hours with 4 hours recovery time. […]"}, "[5]": {"system": "HSF1", "test": "HSF1 granule inhibitor assay, heat shock 43° C.", "settings": "HeLa, 10 nM-10 μM, 43° C. 1-4 hours, threshold 5 granules/nucleus", "protocol": "Experiment 1: HeLa cells were treated with four different […] (10 nM, 100 nM, 1 μM and 10 μM) of triptolide and subsequently underwent heat shock at 43° C. for 1 to 4 hours. […] HSF1 granule count was measured with 5 granules/nucleus used as the threshold. Similar assay conditions were used to test the effect of various compounds selected using MaCRA methods as described herein.\nExperiment 1: HSF1 granule formation induced by Triptolide (▪), CYT1563 (▴) and DMSO (♦, control) was evaluated in a 96-well plate format (See Example 4) following heat shock at 43° C. for 2 hours with no recovery time. FIG. 26A illustrates the HSF1 inhibition.\nExperiment 2: HSF1 granule formation induced by Triptolide (▪), CYT1563 (▴) and DMSO (♦, control) was evaluated in a 96-well plate format (See Example 4) following heat shock at 43° C. for 4 hours with 4 hours recovery time. FIG. 26B illustrates the HSF1 inhibition.\nHeLa cells were treated with DMSO (♦) or CYT 1563 (10 μM) (▪) and subsequently heat shocked at 43° C. for 2 h with no recovery time using HSF1 granule count in a 384-well plate format (See Example 10). Results including the Z′ values and Signal/Background (S/B) ratio are illustrated in FIG. 27."}}, "data": [{"smiles": "CC1=C(O)C(=O)C=C2C1=CC=C1[C@@]2(C)CC[C@@]2(C)[C@@H]3C[C@](C)(C(=O)O)CC[C@]3(C)CC[C@]12C", "note": "[celastrol]", "values": [{"measurement": "EC50", "setting": "[1]", "value": 650, "unit": "nM"}, {"measurement": "HSF1 granule positive cells", "setting": "[2]; 96-well, 2 μM, 41° C. 2 h, HSF1 granule count", "value": 59.36, "unit": "%"}, {"measurement": "average HSF1 stress granules per nucleus", "setting": "[2]; HeLa, 2 μM, 41° C. for two hours", "value": "5.34±0.72", "unit": "granules per nucleus"}, {"measurement": "HSF1 stress granules per nucleus, positive control at 43° C.", "setting": "[2]; HeLa, heat shock 43° C.", "value": "about 6.56"}, {"measurement": "EC50", "setting": "[2]; Homo sapiens, HeLa, read-out: EC50 of HSF1 intensity CV", "value": 1320, "unit": "nM"}]}, {"smiles": "C=C(C)[C@H]1Cc2c(ccc3c2O[C@@H]2COc4cc(OC)c(OC)cc4[C@@H]2C3=O)O1", "note": "[rotenone]", "values": [{"measurement": "SH-SY5Y cells killed", "setting": "[3]", "value": "more than 42%"}]}, {"smiles": "CC(C)[C@]12O[C@H]1[C@@H]1O[C@]13[C@]1(O[C@H]1C[C@H]1C4=C(CC[C@@]13C)C(=O)OC4)[C@@H]2O", "note": "[triptolide]", "values": [{"measurement": "HSP70 expression after heat shock", "setting": "[4]", "value": "reduction of HSP70 expression"}, {"measurement": "inhibition of HSF1 granule formation", "setting": "[5]", "value": "dose dependent inhibition of HSF1 granule formation"}]}]}
